Holding throughout (assay): antibacterial activity by mycelial growth rate method
Format in all cases: cell-based

One assay relates to G. graminis. The conditions noted are these: Gaeumannomyces graminis; for inhibition at 25 µg/mL: 25 mg/L; for inhibition at 50 µg/mL: 50 mg/L; for inhibition at 100 µg/mL: 100 mg/L. How it is done: (§1) Five common strains of C. gloeosporioides, V. mali, F. oxysporum, B. cinerea and G. graminis were selected, and the antibacterial activity of the compounds was tested by a mycelial growth rate method (Ann. Appl. Biol., 2008, 152, 369). The above strains for test were provided by Shangdong Biopesticide Engineering Research Center. Firstly, a certain amount of potato dextrose agar (PDA) was weighed and placed in a wide neck flask, distilled water was added to the wide-necked flask, to prepare a culture medium, and the culture medium was placed in an autoclave for sterilization at 120° C. for half an hour. 1 mg of drugs to be tested were weighed and dissolved in 10 mL of acetone to prepare 100 mg/L of agents, a half of agents therein were taken and diluted with the acetone to 10 mL to prepare 50 mg/L of agents, and 25 mg/L, 12.5 mg/L and 6.25 mg/L of agents might be prepared in such way. 5 mL of agents therein were taken and poured into 50 mL of potato dextrose agar for uniform mixing, and then the mixtures were poured into 5 culture media sterilized at high temperature respectively. The five pathogens were inoculated with inoculation loops respectively after cooling, sealed with sealing films and transferred to a proper temperature for observation. When colonies in the control group without the agents reached […], the colonies in the experimental groups were measured by a cross intersection method according to the following formula: Inhibition rate=(colony diameter of the control group−colony diameter of the experimental groups)/colony diameter of the control group×[…]

The next assay has as its system C. gloeosporioides. The conditions noted are these: Colletotrichum gloeosporioides; for inhibition at 25 µg/mL: 25 mg/L; for inhibition at 50 µg/mL: 50 mg/L; for inhibition at 100 µg/mL: 100 mg/L. Here is the method:
as §1

Another assay deals with F. oxysporum. Conditions: Fusarium oxysporum; for inhibition at 25 µg/mL: 25 mg/L; for inhibition at 50 µg/mL: 50 mg/L; for inhibition at 100 µg/mL: 100 mg/L. How it is done: as §1
The test system of another assay is B. cinerea. Conditions: Botrytis cinerea; for inhibition at 25 µg/mL: 25 mg/L; for inhibition at 50 µg/mL: 50 mg/L; for inhibition at 100 µg/mL: 100 mg/L. How it is done:
as §1

Another assay concerns V. mali. Conditions: Cytospora mali; for inhibition at 25 µg/mL: 25 mg/L; for inhibition at 50 µg/mL: 50 mg/L; for inhibition at 100 µg/mL: 100 mg/L. Here is the method:
as §1

Molecules are shown by their SMILES.

By inhibition is commonly meant the change of the read-out against control, counted positive when it falls. Regarding `c1ccc(CN2Cc3cc4ccccc4nc3CC3CCCN3c3ccccc32)cc1` (stereo not drawn) [Compound 1], the inhibition at 25 µg/mL in the assay on G. graminis is 36.9%; in the assay on C. gloeosporioides, 100%; in the assay on F. oxysporum it was 49.3%; in the assay with B. cinerea it was not above 100%; with V. mali, not above 100%. Further, the inhibition at 50 µg/mL with G. graminis came to 54.1%; in the assay with C. gloeosporioides it was 100%; in the assay with F. oxysporum it was 100%; in the assay with B. cinerea it was 100%; in the assay on V. mali, 100%. The inhibition at 100 µg/mL in the assay on G. graminis is 68.9%; in the assay on C. gloeosporioides it was 100%; in the assay with F. oxysporum, 100%; in the assay with B. cinerea it was 100%; with V. mali, 100%.
Consider `Fc1ccc(CN2Cc3cc4ccccc4nc3CC3CCCN3c3ccccc32)cc1` (stereo not drawn) [Compound 2], for which the inhibition at 25 µg/mL with G. graminis is 100%; in the assay on C. gloeosporioides it was 92.4%; with F. oxysporum, 100%; in the assay with B. cinerea it was not above 100%; with V. mali it was not above 100%. For the same compound, the inhibition at 50 µg/mL with G. graminis, in the assay with C. gloeosporioides, in the assay with F. oxysporum, in the assay on B. cinerea and with V. mali was 100% throughout. Moreover, the inhibition at 100 µg/mL in the assay on G. graminis, with C. gloeosporioides, in the assay on F. oxysporum, in the assay on B. cinerea and in the assay with V. mali was 100% in each case.
For the compound `Cc1ccc(CN2Cc3cc4ccccc4nc3CC3CCCN3c3ccccc32)cc1` (stereo not drawn) [Compound 3], the inhibition at 25 µg/mL with G. graminis is 58.2%; with C. gloeosporioides, 100%; in the assay with F. oxysporum, 100%; in the assay on B. cinerea, not above 100%; in the assay with V. mali, not above 100%. The inhibition at 50 µg/mL turned out to be 62.1% in the assay on G. graminis; 100% in the assay on C. gloeosporioides; 100% in the assay with F. oxysporum; 100% in the assay with B. cinerea; 100% with V. mali. For the same compound, the inhibition at 100 µg/mL with G. graminis, in the assay on C. gloeosporioides, with F. oxysporum, in the assay on B. cinerea and in the assay on V. mali was 100% each time.
Regarding `COc1cccc(CN2Cc3cc4ccccc4nc3CC3CCCN3c3ccccc32)c1` (stereo not drawn) [Compound 4], the inhibition at 25 µg/mL was 61.2% in the assay with G. graminis; 100% in the assay with C. gloeosporioides; 100% in the assay with F. oxysporum; not above 100% in the assay on B. cinerea; not above 100% in the assay with V. mali. The inhibition at 50 µg/mL in the assay with G. graminis was determined as 66.5%; in the assay on C. gloeosporioides it was 100%; with F. oxysporum it was 100%; in the assay on B. cinerea, 100%; in the assay on V. mali it was 100%. The inhibition at 100 µg/mL with G. graminis, in the assay on C. gloeosporioides, in the assay on F. oxysporum, in the assay with B. cinerea and in the assay on V. mali was 100% each time.
Regarding `Cc1ccc(CN2Cc3cc4ccccc4nc3CC3CCCN3c3cc(Cl)ccc32)cc1` (stereo not drawn) [Compound 5], the inhibition at 25 µg/mL was 35.9% with G. graminis; 88.1% with C. gloeosporioides; 100% in the assay with F. oxysporum; not above 100% with B. cinerea; not above 100% in the assay with V. mali. The inhibition at 50 µg/mL came out at 51.9% in the assay with G. graminis; 100% in the assay on C. gloeosporioides; 100% in the assay on F. oxysporum; 100% with B. cinerea; 100% with V. mali. Besides, the inhibition at 100 µg/mL amounted to 75.1% in the assay with G. graminis; 100% with C. gloeosporioides; 100% in the assay on F. oxysporum; 100% in the assay on B. cinerea; 100% in the assay with V. mali.
`Cc1ccc(CN2Cc3cc4cc(C(F)(F)F)ccc4nc3CC3CCCN3c3ccccc32)cc1` (stereo not drawn) [Compound 6]: the inhibition at 25 µg/mL with G. graminis is 56.3%; with C. gloeosporioides, 74.6%; in the assay with F. oxysporum, 86.5%; in the assay with B. cinerea, not above 100%; in the assay on V. mali it was not above 100%. In addition, the inhibition at 50 µg/mL came out at 100% in the assay on G. graminis; 82.1% in the assay on C. gloeosporioides; 100% in the assay on F. oxysporum; 100% in the assay with B. cinerea; 100% with V. mali. Moreover, the inhibition at 100 µg/mL with G. graminis, with C. gloeosporioides, in the assay on F. oxysporum, with B. cinerea and in the assay on V. mali was 100% in each case.
